This is an account of results in patent publication US20230067644A1, “DRG-MDM2-3 FOR USE AS A NOVEL MOUSE DOUBLE MINUTE 2 (MDM2) INHIBITOR” (BAHCESEHIR UNIVERSITESI, priority 2020, published 2023).

One assay addresses MDM2 protein (Homo sapiens, UniProt Q00987). The note with it: background statement; cited from earlier work.
In assay [1] the test system is HCT-116 cells. As to the kind of experiment: Microscopic evaluation of cells (proliferation, apoptotic morphology). Type of assay: cell-based. As to the method:
Cells were photographed and observed under microscope for three days.
As a result, cell viability decreased by 40% at the end of the first day and reached 60% at the end of the third day. Any cell proliferation change and apoptotic cell morphology were not observed in the untreated and vehicle groups. Moreover, differences in cell morphology were also observed. […] Upon treatment with the compound of formula I according to present invention with 100 μM concentration, cells having the morphology of apoptotic cells were observed starting from the 3rd hour.

The next assay has as its system MDA-MB231 cell lines. The experiment in a line: MTT cell viability assay (IC50). The assay is classed as cell-based. The note with it: Homo sapiens, MDA-MB-231, single dose of treatment, 10^-9 to 10^-4 M, absorbance 570 nm. On the procedure:
(§1) HCT 116 colon cancer and MDA-MB231 breast cancer cell lines are used in cell culture experiments.
Cells were treated with high-glucose DMEM medium (Biosera) supplemented with 10% FBS (Gibco) and 1× penicillin/streptomycin (Multicell). The assay was designed to contain 10,000 cells for each well of 24-well cell culture plates before being treated with inhibitors.
Compound of formula I was dissolved with DMSO as 20 mM stock. 24 hours later, the solution was diluted in DMEM with 10% FBS and final concentration of vehicle DMSO was 0.5% at maximum. Therefore, the vehicle group included 0.5% DMSO concentration in experiments. Intensive cultivation of cells causes a decrease in proliferation capacity.
The MTT cell viability assay was used to detect values of half-maximal inhibitory concentration (IC50). Different concentrations of compound of formula I ranging between 10^−9 to 10^−4 M were tested on MDA-MB231 cell lines with single dose of treatment. 570 nm absorbance values were recorded and IC50 values were calculated by dose response—inhibition curves and nonlinear regression analysis on Graphpad Prism 8 software.

Assay [2] deals with HCT-116 cells. As to the kind of experiment: MTT cell proliferation assay. The assay is classed as cell-based. As to conditions: Homo sapiens, HCT-116, 100 μM, read-out: cell viability decreased. On the procedure:
as §1
For proliferation inhibition analysis, cells were seeded in 24 well plates at 1×10^4 cells/well cells overnight without drug treatment. During the cell proliferation experiments, we performed five days of treatment in each cell line and repeated the experiments three times to check each experiment. No significant difference in cell viability was observed after the third day. Therefore, cells with different drug concentrations were treated for two days. After 48 hours, MTT was applied to the cells and incubated at 37° C. for 4 hours, formazan was solubilized with DMSO (Sigma-Aldrich, St. Louis, USA) and absorbance was measured at 570 nm.
Molecule concentration was 100 μM, the lower concentrations were not shown. Vehicle represents the groups treated with only %0,5 DMSO and Untreated represents no molecule treated group. Molecule responses were evaluated by cell viability which is obtained by spectrophotometric analysis of cells upon MTT treatment at 12 h, 24 h, 48 h and 72 h. […] Statistical significance in graphs was determined by comparing each treatment group with DMSO control using ANOVA testing and significance is considered as p<0.001 (FIG. 2).
As a result, cell viability decreased by 40% at the end of the first day and reached 60% at the end of the third day. […]

Read-outs that look alike come from different tables or passages of the source.

MDM2 protein, sequence (Q00987 whole entry, species assumed): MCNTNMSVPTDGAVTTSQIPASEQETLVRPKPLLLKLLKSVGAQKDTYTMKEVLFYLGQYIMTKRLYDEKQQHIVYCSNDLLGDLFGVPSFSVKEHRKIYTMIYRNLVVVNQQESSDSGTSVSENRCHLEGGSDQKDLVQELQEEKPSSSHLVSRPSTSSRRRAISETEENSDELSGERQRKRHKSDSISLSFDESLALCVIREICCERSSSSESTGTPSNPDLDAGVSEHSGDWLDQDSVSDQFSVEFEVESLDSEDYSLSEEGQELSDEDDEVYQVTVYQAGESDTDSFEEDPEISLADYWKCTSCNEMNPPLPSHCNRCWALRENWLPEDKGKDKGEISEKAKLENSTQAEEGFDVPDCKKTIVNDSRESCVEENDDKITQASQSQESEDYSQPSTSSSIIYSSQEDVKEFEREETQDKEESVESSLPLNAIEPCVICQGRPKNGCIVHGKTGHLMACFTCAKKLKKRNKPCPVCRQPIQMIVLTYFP

Regarding MI-319, on MDM2 protein, the “binding affinity to MDM2 protein relative to a natural p53 peptide” value was 500 fold.

Regarding `O=C(CCc1ccccc1Cl)NC(CC1CNc2ccccc21)C(=O)O` (stereo not shown) [compound of formula I], the “hour from which cells having the morphology of apoptotic cells were observed” value in the assay on HCT-116 cells [1] (100 μM concentration) was 3 hour. The “apoptotic activity (onset, microscopy)” value with HCT-116 cells [1] (FIG. 3) is given as “clear apoptotic activity from the twelfth hour”. Also, the “proliferation and cell structures under microscope” value with HCT-116 cells [1] (observed for three days, vs vehicle and untreated, FIG. 3) was “reduced proliferation and showed apoptotic cell structures”. 41 µM corresponded to half-maximal inhibition in the assay on MDA-MB231 cell lines (IC50). The values for the cytotoxicity at 100 µM with HCT-116 cells [2] (at the end of the first day) and with HCT-116 cells [2] (at the end of the third day) were 40% and 60%, respectively.
